Measurements: PMC11204762, “Purification and Structural Analyses of Sulfated Polysaccharides from Low-Value Sea Cucumber Stichopus naso and Anticoagulant Activities of Its Oligosaccharides” (Marine Drugs, 2024)
Several values for one entry are separate records, joined by “and”; a condition that tells them apart may be missing. Identical values can stand only once.

Key:
[1] = test system: intrinsic coagulation pathway (APTT of human plasma); assay: Anticoagulant activity: APTT with a coagulometer, APTT reagent and standard human plasma; type: biochemical; settings: for 2APTT: concentration required to double the APTT of human plasma (EC2.0×): standard human plasma, EC2.0× ± SD (n = 2)
Method: The anticoagulant activities of natural SnFG and its oligosaccharides 3, 4, 5, and 6 were assessed using a coagulometer (TECO, MC-2000) using APTT reagents and standard human plasma, according to a previous method. Briefly, 5 μL of a series of concentrations of the samples was added to a standard preheated to 37 °C and another 45 μL of standard human plasma was added for co-incubation at 37 °C for 2 min, followed by the addition of 50 μL of APTT reagent for incubation for another 3 min. Subsequently, 50 μL of CaCl2 (0.02 M) was added and the timer was started.
(§1) Activities of natural HfFG (FG from H. fuscopunctata) and its oligosaccharides oHG-8, oHG-11, oHG-14, and oHG-17 were simultaneously detected for comparison.

[2] = target: T1, intrinsic factor Xase complex (iXase, VIIIa-IXa-PL-Ca2+ complex) (Homo sapiens, UniProt P00740); assay: Inhibition of iXase: chromogenic substrate assay, BIOPHEN FVIII:C kit and recombinant human factor VIII; type: biochemical; settings: IC50 ± SE (n = 2)
T1 construct: intrinsic factor Xase complexes (iXase, VIIIa-IXa-PL-Ca^2+ complex); purchased BIOPHEN FVIII:C (assay kit)
T1 sequence (P00740 47-191 limits assumed): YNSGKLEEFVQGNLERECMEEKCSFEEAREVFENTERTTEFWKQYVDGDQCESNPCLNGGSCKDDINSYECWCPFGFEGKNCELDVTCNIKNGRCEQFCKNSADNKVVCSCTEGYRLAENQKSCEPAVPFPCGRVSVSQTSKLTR
T1 sequence (P00740 227-461 limits assumed): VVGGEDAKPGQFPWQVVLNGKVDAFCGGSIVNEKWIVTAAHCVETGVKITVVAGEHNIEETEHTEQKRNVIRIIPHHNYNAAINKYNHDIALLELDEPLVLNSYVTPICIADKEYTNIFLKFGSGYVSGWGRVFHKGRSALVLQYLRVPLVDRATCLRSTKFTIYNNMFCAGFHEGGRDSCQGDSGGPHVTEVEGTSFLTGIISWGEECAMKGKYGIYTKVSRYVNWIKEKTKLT
Method: Inhibition of iXase was assessed using the chromogenic substrate assay and the FVIII assay kit BIOPHEN FVIII:C: containing R1 (FX), R2 (Activation Reagent), and R3 (SXa-11) and recombinant human factor VIII (FVIII). A total of 30 μL of each sample was added to the 96-well plate, followed by 30 μL of R2 and 30 μL of FVIII solution (2 IU/mL), and the place was placed in the microplate reader. The plates were mixed and incubated at 37 °C for 2 min. Then, 30 μL of R1 was added to mix and incubated at 37 °C for 1 min, and finally, 30 μL of R3 was added. The absorbance value at 405 nm (OD405nm) was recorded via a microplate reader, and continuous reading was performed for 2min at 15 s intervals. The experiments were performed in duplicate. The average value of OD405nm was linearly fitted to time, and the slope (the rate of change in absorbance value ΔOD405nm/min) corresponded to the iXase activity.
as §1

Substance | fold stronger than oHG-8 in APTT prolongation (EC2.0×) ([1]; EC2.0× 20.94 vs. 32.35 μg/mL) | 2APTT: concentration required to double the APTT of human plasma (EC2.0×) [1] | Anti-iXase: concentration required to inhibit 50% Xase activity (IC50) [2] [µg/mL]
L-Fuc2S4S-α(1,3)-L-Δ^4,5HexA-α(1,3)-D-GalNAc4S6S-β(1,4)-[L-Fuc2S4S-α(1,3)]-D-GlcA-β(1,3)-D-GalNAc4S6S-β(1,4)-[L-Fuc2S4S-α(1,3)]-D-GlcA-ol [compound 3] | about 1.5 fold | 20.94 µg/mL and 20.94 ± 0.27 µg/mL | 0.335 ± 0.02473
enoxaparin [LMWH, reference compound] |  | 7.46 ± 0.02 µg/mL | 0.08444 ± 0.00799
